Test results: ChEMBL document CHEMBL1932923, “Structure-activity relationships for naturally occurring coumarins as β-secretase inhibitor” (Bioorg Med Chem, 2012)
Calls of active or inactive are those of the source. No cut-off for these calls is given here. Non-standard residues stand in square brackets, D forms with d. Residues, ends and D or L forms follow the SMILES beside them. Sta = CC(C)C[C@H](N)[C@@H](O)CC(=O)O

Each compound was assayed against T1, Beta-secretase 1 (Homo sapiens, UniProt P56817) (assay: Inhibition of recombinant human BACE1 assessed as dissociation constant of enzyme-inhibitor complex using Rh-EVNLDAEFK as substrate by Dixon and Cornish-Bowden plots analysis).
T1 sequence (P56817 whole entry): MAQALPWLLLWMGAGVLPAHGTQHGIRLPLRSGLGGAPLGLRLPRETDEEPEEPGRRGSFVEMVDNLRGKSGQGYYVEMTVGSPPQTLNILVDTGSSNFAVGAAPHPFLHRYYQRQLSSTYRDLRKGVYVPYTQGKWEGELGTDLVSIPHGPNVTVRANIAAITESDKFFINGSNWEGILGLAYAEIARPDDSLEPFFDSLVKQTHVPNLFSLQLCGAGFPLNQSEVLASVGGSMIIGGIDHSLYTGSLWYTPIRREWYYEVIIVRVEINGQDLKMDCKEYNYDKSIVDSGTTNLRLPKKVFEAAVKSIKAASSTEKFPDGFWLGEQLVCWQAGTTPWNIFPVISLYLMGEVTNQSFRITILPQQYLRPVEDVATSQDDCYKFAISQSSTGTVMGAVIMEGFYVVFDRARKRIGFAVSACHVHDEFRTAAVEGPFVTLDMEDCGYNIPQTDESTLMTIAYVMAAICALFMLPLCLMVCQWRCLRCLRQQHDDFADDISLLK

Row | Compound | Ki [µM]
1 | CC(C)=CCC/C(C)=C/COc1c2occc2cc2ccc(=O)oc12 | 61.6
2 | COc1c2occc2c(OC/C=C(\C)CCC=C(C)C)c2ccc(=O)oc12 | 103
3 | CC(C)=CCC/C(C)=C/COc1c2ccoc2cc2oc(=O)ccc12 [BERGAMOTTIN] | 34.8

What follows are compounds tested against T1, Beta-secretase 1 (assay: Inhibition of recombinant human BACE1 using Rh-EVNLDAEFK as substrate after 60 mins by fluorescence quenching assay).

Row | Compound | IC50 [µM]
4 | CC(C)=CCC/C(C)=C/COc1c2occc2cc2ccc(=O)oc12 | 20.4
5 | CC(C)=CCOc1c2ccoc2c(OCC=C(C)C)c2oc(=O)ccc12 | > 500
6 | O=c1ccc2c(O)c3ccoc3c(O)c2o1 | > 500
7 | COc1c2ccoc2c(O)c2oc(=O)ccc12 | > 500
8 | CC(C)=CCOc1c2ccoc2c(O)c2oc(=O)ccc12 | > 500
9 | CC(C)=CCC/C(C)=C/COc1c2ccoc2c(O)c2oc(=O)ccc12 | > 500
10 | COc1c2occc2c(OC/C=C(\C)CCC=C(C)C)c2ccc(=O)oc12 | 9.9
11 | COc1c2ccoc2c(OC/C=C(\C)CCC=C(C)C)c2oc(=O)ccc12 | 11.1
12 | CC[C@H](C)[C@H](NC(=O)[C@H](CCC(=O)O)NC(=O)[C@H](CCC(=O)O)NC(=O)[C@@H](NC(=O)[C@@H](N)CCCCN)[C@@H](C)O)C(=O)N[C@@H](CO)C(=O)N[C@@H](CCC(=O)O)C(=O)N[C@H](C(=O)N[C@@H](CC(N)=O)C(=O)N[C@@H](CC(C)C)[C@@H](O)CC(=O)N[C@H](C(=O)N[C@@H](C)C(=O)N[C@@H](CCC(=O)O)C(=O)N[C@@H](Cc1ccccc1)C(=O)O)C(C)C)C(C)C (H-KTEEISEVN[Sta]VAEF-OH) | 0.2
13 | CC(C)=CCOc1ccc2ccc(=O)oc2c1 [7-PRENYLOXYCOUMARIN] | > 500
14 | O=c1ccc2ccc3occc3c2o1 [ANGELICIN] | > 500
15 | CC(C)=CCC/C(C)=C/COc1ccc2ccc(=O)oc2c1 [AURAPTENE] | 345
16 | CC(C)=CCC/C(C)=C/COc1c2ccoc2cc2oc(=O)ccc12 [BERGAMOTTIN] | 32.2
17 | COc1c2ccoc2cc2oc(=O)ccc12 [BERGAPTEN] | > 500
18 | O=c1ccc2c(O)c3ccoc3cc2o1 [BERGAPTOL] | > 500
19 | COc1c2ccoc2c(OC[C@@H](O)C(C)(C)O)c2oc(=O)ccc12 [BYAKANGELICIN] | 220
20 | COc1c2ccoc2c(OC[C@H]2OC2(C)C)c2oc(=O)ccc12 [BYAKANGELICOL] | 105
21 | CC(C)(O)[C@@H]1Cc2c(ccc3ccc(=O)oc23)O1 [COLUMBIANETIN] | > 500
22 | O=c1ccc2ccccc2o1 [COUMARIN] | > 500
23 | C/C=C(\C)C(=O)O[C@H]1Cc2cc3ccc(=O)oc3cc2OC1(C)C [DECURSINOL TIGLATE] | > 500
24 | CC1(C)Oc2cc3oc(=O)ccc3cc2C[C@@H]1O [DECURSINOL] | > 500
25 | CC(C)=CC(=O)O[C@H]1Cc2cc3ccc(=O)oc3cc2OC1(C)C [DECURSIN] | > 500
26 | CC(C)=CCc1cc2ccc(=O)oc2cc1O [DEMETHYLSUBEROSIN] | 413

Row | Compound | IC50 [µM]
27 | CC1(C)CCc2cc3ccc(=O)oc3cc2O1 [DIHYDROXANTHYLETIN] | > 500
28 | CC1(C)O[C@@H]1COc1c2occc2cc2ccc(=O)oc12 [HERACLENIN] | 444
29 | CC(C)(O)[C@H](O)COc1c2occc2cc2ccc(=O)oc12 [HERACLENOL] | > 500
30 | COc1ccc2ccc(=O)oc2c1 [HERNIARIN] | > 500
31 | COc1c2ccoc2c(OC)c2oc(=O)ccc12 [ISOPIMPINELLIN] | > 500
32 | COc1c2occc2c(OCC=C(C)C)c2ccc(=O)oc12 [KINIDILIN] | 344
33 | CC1(C)Oc2ccc3ccc(=O)oc3c2CC1O (centres undefined) [LOMATIN] | > 500
34 | CC(C)(O)[C@@H]1Cc2cc3ccc(=O)oc3cc2O1 [MARMESIN] | > 500
35 | COc1c2occc2cc2ccc(=O)oc12 [METHOXSALEN] | > 500
36 | CC(C)=CCc1c(O)ccc2ccc(=O)oc12 [OSTHENOL] | > 500
37 | COc1ccc2ccc(=O)oc2c1CC=C(C)C [OSTHOLE] | > 500
38 | CC(C)(O)[C@H](O)COc1c2ccoc2cc2oc(=O)ccc12 [OXYPEUCEDANIN HYDRATE] | > 500
39 | CC1(C)O[C@H]1COc1c2ccoc2cc2oc(=O)ccc12 [OXYPEUCEDANIN] | 359
40 | CC(C)=CCOc1c2occc2cc2ccc(=O)oc12 [PENTOSALEN] | 91.8
41 | COc1c2ccoc2c(OCC=C(C)C)c2oc(=O)ccc12 [PHELLOPTERIN] | 143
42 | O=c1ccc2cc3ccoc3cc2o1 [PSORALEN] | > 500
43 | COc1cc2ccc(=O)oc2cc1OC [SCOPARONE] | > 500
44 | CC1(C)C=Cc2c(ccc3ccc(=O)oc23)O1 [SESALIN] | > 500
45 | COc1cc2oc(=O)ccc2cc1CC=C(C)C [SUBEROSIN] | > 500
46 | O=c1ccc2ccc(O)cc2o1 [UMBELLIFERONE] | > 500
47 | O=c1ccc2cc3ccoc3c(O)c2o1 [XANTHOTOXOL] | > 500
48 | CC1(C)C=Cc2cc3ccc(=O)oc3cc2O1 [XANTHYLETIN] | > 500

The compounds below were run against T1, Beta-secretase 1 (assay: Non-competitive inhibition of recombinant human BACE1 using Rh-EVNLDAEFK as substrate by Dixon and Cornish-Bowden plots analysis).

Row | Compound | inhibition
49 | CC(C)=CCC/C(C)=C/COc1c2occc2cc2ccc(=O)oc12 | Active

Each compound was assayed against T1, Beta-secretase 1 (assay: Inhibition of recombinant human BACE1 assessed as dissociation constant of enzyme-substrate-inhibitor complex using Rh-EVNLDAEFK as substrate by Dixon and Cornish-Bowden plots analysis).

Row | Compound | Ki [µM]
50 | CC(C)=CCC/C(C)=C/COc1c2occc2cc2ccc(=O)oc12 | 61.9
51 | COc1c2occc2c(OC/C=C(\C)CCC=C(C)C)c2ccc(=O)oc12 | 13.7
52 | CC(C)=CCC/C(C)=C/COc1c2ccoc2cc2oc(=O)ccc12 [BERGAMOTTIN] | 0.7

What follows are compounds tested against T1, Beta-secretase 1 (assay: Mixed type inhibition of recombinant human BACE1 using Rh-EVNLDAEFK as substrate by Dixon and Cornish-Bowden plots analysis).

Row | Compound | inhibition
53 | COc1c2occc2c(OC/C=C(\C)CCC=C(C)C)c2ccc(=O)oc12 | Active
54 | CC(C)=CCC/C(C)=C/COc1c2ccoc2cc2oc(=O)ccc12 [BERGAMOTTIN] | Active
